Measurements from patent US20240148713A1 (INDUSTRY-ACADEMIC COOPERATION FOUNDATION, YONSEI UNIVERSITY, priority 2021, published 2024).

Tests used:
HS746T cell line [1] = test: CCK-8 assay, MRTF A inhibitor and cisplatin alone or in combination; type: cell-based, human; settings: 5 μg/ml inhibitor, after 24 hours 5 μM cisplatin, CCK-8 24 hours later, FIG. 8
Method: In the same manner as described above, 5 μg/ml CCG-232601, CCG-203971 or CCG-222740 was first administered to the HS746T cell line, and after 24 hours, 5 μM cisplatin (CDDP) was administered to the cell line, and 24 hours after administration of CDDP, a CCK-8 assay was performed using a cell viability assay kit.

[2] = system: murine model of skin injury; settings: cited from earlier work
[3] = system: lung fibrosis lung fibroblasts; settings: cited from earlier work
[4] = system: human colonic myofibroblasts; settings: cited from earlier work
HS746T [5] = test: Drug sensitivity upon treatment with cisplatin (CDDP); type: cell-based, human
Method: (§1) Drug sensitivity upon treatment with cisplatin (CDDP) was measured in the gastric cancer cell lines SNU601 and NCIN87 and the cell lines HS746T and MKN1 having gastric cancer stem cell-like characteristics, and the results are shown in FIG. 3.

MKN1 [6] = test: as above; type: cell-based, human
Method: as §1

MKN1 cell line = test: CCK-8 assay, CCG-232601 and cisplatin alone or in combination; type: cell-based, human; settings: FIG. 6
Method: Accordingly, in order to evaluate the effect of co-administration of the compound CCG-232601, the survival and growth inhibitory effects upon administration of cisplatin (CDDP) and CCG-232601 alone or in combination to the MKN1 cell line were evaluated using a cell viability assay kit (Cell Counting Kit-8; CCK-8). Unlike administration alone, to evaluate the effect of co-administration, 5 μg/ml CCG-232601 was first administered to the MKN1 cell line, and 24 hours after administration of CCG-232601, 5 μM cisplatin (CDDP) was administered to the cell line, and 24 hours after administration of CDDP, CCK-8 assay was performed using a cell viability assay kit.

HS746T [7] = test: Cell viability (CCK-8), treatment alone, Example 1; type: cell-based, human; settings: HS746T stem-like cell line, different concentrations, 48 hours, FIG. 1
Method: (§2) In order to evaluate the ability to inhibit the growth or metastasis of cancer cell lines or cancer stem cell lines in Examples of the present invention, the present inventors obtained the cell lines MKN1 and HS746T having human gastric cancer stem cell characteristics, and the human gastric cancer cell lines SNU601, YCC7 and NCIN87, from the American Type Culture Collection (ATCC) and the Korean Cell Line Bank (KCRB). The cell lines were cultured in different culture media under different culture conditions according to the ATCC or KCRB guides. The MKN1, SNU601, and NCIN87 cell lines were cultured in RPMI1640 media containing 10% fetal bovine serum (FBS), 2 mM L-glutamine, 100 U/ml penicillin and 100 μg/ml streptomycin, and the HS746T and YCC7 cell lines were cultured in DMEM media containing 10% FBS, 2 mM L-glutamine, 100 U/ml penicillin and 100 μg/ml streptomycin. All the cell lines were cultured at 37° C. under 5% CO2, and mycoplasma contamination tests were performed.
(§3) The cell lines cultured in the Preparation Example were seeded into well plates at a density of 1×10^4 cells per well, and cultured overnight at 37° C. under 5% CO2. Next, each of the gastric cancer stem-like cell lines HS746T and MKN1 and the gastric cancer cell lines YCC7 and NCIN87 was treated with different concentrations of each of the anticancer drug cisplatin (CDDP), which is currently widely used in the treatment of gastric cancer patients, and the MRTF A inhibitor CCG-232601 compound, and after 48 hours, the number of cells was counted and the results are shown in FIG. 1. 100 μL of each cell culture and 10 μL of reaction buffer (CCK) were mixed together, placed in a 96-well plate, incubated for 1 hour at room temperature, and then measured for absorbance at a wavelength of 450 nm using a spectrophotometer (Synergy HTX Multi-Reader, BioTek, Winooski, VT, USA). At the same time, the number of cells in each sample was counted using a cell viability assay kit (Cell Counting Kit-8), and the counted value was expressed relative to the cell number of the negative control group so that the same cell number in each cell could be compared with the cell number of the negative control group. The experimental results are shown as the mean values of the repeated experiments.

MKN1 [8] = test: Cell viability (CCK-8), treatment alone, Example 1; type: cell-based, human; settings: MKN1 stem-like cell line, different concentrations, 48 hours, FIG. 1
Method: as §2, §3

[9] = system: preclinical fibrosis model; settings: cited from earlier work
[10] = system: alpha smooth muscle actin protein; settings: cited from earlier work
HS746T cell line [11] = test: CCK-8 assay, CCG-232601 and oxaliplatin alone or in combination; type: cell-based, human
Method: In order to examine whether the co-administration of the compound CCG-232601 is also effective in improving drug sensitivity to other platinum-based anticancer drugs of the same family as cisplatin, the survival and growth inhibitory effects upon administration of CCG-232601 and oxaliplatin alone or in combination to the HS746T cell line were evaluated using a cell viability assay kit (Cell Counting Kit-8; CCK-8). Unlike administration alone, to evaluate the effect of co-administration, 5 μg/ml CCG-232601 was first administered to the HS746T cell line, and 24 hours after administration of CCG-232601, 24 μg/ml oxaliplatin was administered to the cell line, and 24 hours after administration of oxaliplatin, CCK-8 assay was performed using a cell viability assay kit.

[12] = system: bleomycin-induced dermal fibrosis; settings: administered orally to mice; cited from earlier work
HS746T [13] = test: Oxygen consumption rate (OCR) and extracellular acidification rate (ECAR), extracellular flux analyzer; type: cell-based, human
Method: (§4) In particular, in order to confirm that the CCG-232601 compound has an excellent inhibitory effect against the growth of cancer stem cells, the oxygen consumption rate (OCR) and extracellular acidification rate (ECAR) of the stern-like cell lines HS746T and MKN1 having high resistance to metabolic stress were measured and the results are FIG. 2. More specifically, each of the cell lines was inoculated at a confluency of 70 to 80% in Seahorse normal culture medium, and oxygen consumption rate (OCR, pmol/min/μg protein) and extracellular acidification rate (ECAR, mpH/min/μg protein) were analyzed using an XF96 or XFp extracellular flux analyzer (Agilent) to determine mitochondrial oxidation and glycolysis levels. Mitochondrial oxidation ability of the cells pretreated for 1 hour with or without 10 mM β-HB (Sigma) was evaluated using the Seahorse XF Mito Stress Kit (Agilent). To overcome changes in oxidation and glycolysis processes upon treatment with CCG-232601, the cells were pretreated overnight with vehicle or the inhibitor, and finally 10 mM β-hydroxybutyrate was added upon the first injection.

MKN1 [14] = test: as above; type: cell-based, human
Method: as §4

YCC7 = test: Cell viability (CCK-8), treatment alone, Example 1; type: cell-based, human; settings: YCC7 gastric cancer cell line, different concentrations, 48 hours, FIG. 1
Method: as §2, §3

NCIN87 = test: Cell viability (CCK-8), treatment alone, Example 1; type: cell-based, human; settings: NCIN87 gastric cancer cell line, different concentrations, 48 hours, FIG. 1
Method: as §2, §3

HS746T [15] = test: Transwell invasion assay; type: cell-based, human; settings: 10 μg/ml, 12 hours, matrigel transwell, FIG. 3
Method: (§5) Transwell invasion assay was performed with or without CCG-232601 treatment. Invasion ability was measured using a 6.5-mm transwell with an 8.0 μm-pore polycarbonate membrane insert (Corning) after coating with matrigel (Corning) diluted with serum-free medium to 0.67 μg/μl. Then, 2×10^4 cells per well were suspended in 200 μl of serum-free medium with vehicle or 10 μg/ml CCG-232601, and 1,000 μl of culture medium containing 10% FBS was added to the lower chamber. After 12 hours, the transferred cells were stained with 0.2% crystal violet and observed under an optical microscope. The average number of cells penetrating the membrane was counted with ImageJ (NIH) in three randomly selected high-power fields and two independent experiments, and the results are shown in FIG. 3.

MKN1 [16] = test: Transwell invasion assay; type: cell-based, human; settings: MKN1, 10 μg/ml, 12 hours, matrigel transwell, FIG. 3
Method: as §5

O=C(Nc1ccc(Cl)cc1)C1CCCN(C(=O)c2cccc(-c3ccco3)c2)C1 (centres unmarked) [CCG-203971, N-(4-chlorophenyl)-1-(3-(furan-2-yl)benzoyl)piperidine-3-carboxamide]
drug sensitivity to cisplatin in combination versus cisplatin alone (HS746T cell line [1]): drug sensitivity was improved | antifibrotic activity [2]: shows antifibrotic activity | antifibrotic activity [3]: shows antifibrotic activity | matrix stiffness and TGF-β-mediated fibrogenesis [4]: represses

N.N.[Cl][Pt][Cl] [cisplatin]
drug sensitivity lower than that of the cancer cell lines (HS746T [5]; HS746T versus SNU601 and NCIN87, FIG. 4): 20 to 40% | resistance of the cell line to cisplatin (HS746T [5]; HS746T, FIG. 4): showed resistance | resistance of the cell line to cisplatin (MKN1 [6]; MKN1, FIG. 4): showed resistance | drug sensitivity lower than that of the cancer cell lines (MKN1 [6]; MKN1 versus SNU601 and NCIN87, FIG. 4): 20 to 40% | effect on cell viability, administered alone (MKN1 cell line; MKN1, cisplatin alone): drug resistance | antitumor effect (cell number relative to negative control) (HS746T [7]): exhibited significantly improved antitumor effects | antitumor effect (cell number relative to negative control) (MKN1 [8]): exhibited significantly improved antitumor effects

O=C(Nc1ccc(Cl)cc1)C1CN(C(=O)c2cccc(-c3ccco3)c2)CC(F)(F)C1 (centres unmarked) [CCG-222740, N-(4-chlorophenyl)-5,5-difluoro-1-(3-(furan-2-yl)benzoyl)piperidine-3-carboxamide]
scar tissue formation [9]: effectively prevent scar tissue formation | drug sensitivity to cisplatin in combination versus cisplatin alone (HS746T cell line [1]): drug sensitivity was improved | expression of alpha smooth muscle actin protein [10]: prevent the expression

O=C(Nc1ccc(Cl)cc1)C1CN(C(=O)c2cccc(-c3ccncc3)c2)CC(F)(F)C1 (centres unmarked) [CCG-232601, N-(4-chlorophenyl)-5,5-difluoro-1-(3-(pyridin-4-yl)benzoyl)piperidine-3-carboxamide]
drug sensitivity to cisplatin in combination versus cisplatin alone (HS746T cell line [1]): drug sensitivity was improved | cytotoxicity at 5 µg/mL (HS746T cell line [11]; Homo sapiens, 5 μg/ml CCG-232601, after 24 hours 24 μg/ml oxaliplatin, CCK-8 24 hours later, FIG. 7, read-out: reduction of cell viability compared to oxaliplatin alone): ≥ 20% | growth of the cancer stem-like cells, administered alone (HS746T cell line [11]; administered alone, FIG. 7): reduced the growth | development of bleomycin-induced dermal fibrosis [12]: suppress the development | reduction of cell viability (MKN1 cell line; MKN1, administered alone, compared to negative control group and cisplatin-alone group): 20% | susceptibility to glucose deprivation (HS746T [13]; conclusion from OCR/ECAR results): greatly increased the susceptibility | glycolytic ECAR versus OCR (mitochondrial respiration) (HS746T [13]; pretreated overnight with inhibitor, FIG. 2): ECAR was higher than the OCR | susceptibility to glucose deprivation (MKN1 [14]; MKN1, conclusion from OCR/ECAR results): greatly increased the susceptibility | glycolytic ECAR versus OCR (mitochondrial respiration) (MKN1 [14]; MKN1, pretreated overnight with inhibitor, FIG. 2): ECAR was higher than the OCR | antitumor effect (cell number relative to negative control) (HS746T [7]): exhibited antitumor effects | antitumor effect (cell number relative to negative control) (YCC7): exhibited antitumor effects | antitumor effect (cell number relative to negative control) (NCIN87): exhibited antitumor effects | antitumor effect (cell number relative to negative control) (MKN1 [8]): exhibited antitumor effects | invasion and metastasis (cells penetrating the membrane) (HS746T [15]): reduced the invasion and metastasis | invasion and metastasis (cells penetrating the membrane) (MKN1 [16]): reduced the invasion and metastasis
